According to PubChem BioAssay (NCI):
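These data come from cells grown in 96-well plates and exposed to compound for 48 hours at five concentrations. GI50 marks 50% less growth. At the TGI there is no net growth.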

What was measured:
Assay in all cases: NCI tumour cell line growth inhibition, 48 h
[1] = tested on: SN12C renal
[2] = tested on: NCI/ADR-RES ovarian
[3] = tested on: SF-268 CNS
[4] = tested on: COLO 205 colon
[5] = tested on: U251 CNS
[6] = tested on: RPMI-8226 leukemia
[7] = tested on: DU-145 prostate
[8] = tested on: CAKI-1 renal
[9] = tested on: A498 renal
[10] = tested on: T-47D breast
[11] = tested on: UACC-257 melanoma
[12] = tested on: OVCAR-8 ovarian
[13] = tested on: NCI-H460 lung
[14] = tested on: BT-549 breast
[15] = tested on: HCC-2998 colon
[16] = tested on: HOP-62 NSCLC
[17] = tested on: UACC-62 melanoma
[18] = tested on: IGROV1 ovarian
[19] = tested on: OVCAR-3 ovarian
[20] = tested on: SNB-19 CNS
[21] = tested on: MCF7 breast
[22] = tested on: PC-3 prostate
[23] = tested on: SF-295 CNS
[24] = tested on: OVCAR-5 ovarian
[25] = tested on: MDA-MB-435
[26] = tested on: HS 578T breast
[27] = tested on: K-562 leukemia
[28] = tested on: MALME-3M melanoma
[29] = tested on: NCI-H226 lung
[30] = tested on: SW-620 colon
[31] = tested on: NCI-H522 lung
[32] = tested on: A549 NSCLC
[33] = tested on: CCRF-CEM leukemia
[34] = tested on: RXF 393 renal
[35] = tested on: SK-OV-3 ovarian
[36] = tested on: TK-10 renal
[37] = tested on: HCT-15 colon
[38] = tested on: MDA-MB-231 breast
[39] = tested on: SF-539 CNS
[40] = tested on: SR leukemia
[41] = tested on: SK-MEL-28 melanoma
[42] = tested on: 786-0 renal
[43] = tested on: OVCAR-4 ovarian
[44] = tested on: NCI-H23 lung
[45] = tested on: ACHN renal
[46] = tested on: MOLT-4 leukemia
[47] = tested on: KM12 colon
[48] = tested on: UO-31 renal
[49] = tested on: SNB-75 CNS
[50] = tested on: HT29 colon
[51] = tested on: M14 melanoma
[52] = tested on: HL-60(TB) leukemia
[53] = tested on: HCT-116 colon
[54] = tested on: SK-MEL-5 melanoma

For `c1ccc2[nH]c(-c3cc(-c4ccc5c(c4)OCO5)n[nH]3)nc2c1`, the GI50 [1] was 3.73 µM, the TGI [1] was 21.3 µM and the GI50 [2] was 4.08 µM. For the same compound, the TGI [2] was 27.1 µM, the GI50 [3] was 4.77 µM and the TGI [3] was 22.4 µM. It also gave a GI50 [4] of 4.78 µM, a TGI [4] of 18.5 µM and a GI50 [5] of 2.37 µM. It also gave a TGI [5] of 14.4 µM, a GI50 [6] of 1.14 µM and a TGI [6] of 7.16 µM. It also gave a GI50 [7] of 7.27 µM, a TGI [7] of 22 µM and a GI50 [8] of 2.74 µM. It also gave a TGI [8] of 17.7 µM, a GI50 [9] of 1.7 µM and a TGI [9] of 12.8 µM. It also gave a GI50 [10] of 3.32 µM, a TGI [10] of 16.2 µM and a GI50 [11] of 6 µM. It also gave a TGI [11] of 23.2 µM, a GI50 [12] of 3.97 µM and a TGI [12] of 18 µM. The GI50 [13] was 4.57 µM, the TGI [13] was 17.7 µM and the GI50 [14] was 2.12 µM. It also gave a TGI [14] of 13 µM, a GI50 [15] of 3.74 µM and a TGI [15] of 14 µM. It also gave a GI50 [16] of 8.46 µM, a TGI [16] of 21.8 µM and a GI50 [17] of 3.08 µM. It also gave a TGI [17] of 14.7 µM, a GI50 [18] of 3.66 µM and a TGI [18] of 15.9 µM. For the same compound, the GI50 [19] was 3.21 µM, the TGI [19] was 14.6 µM and the GI50 [20] was 5.92 µM. It also gave a TGI [20] of 25.6 µM, a GI50 [21] of 3.78 µM and a TGI [21] of 18.3 µM. For the same compound, the GI50 [22] was 3.64 µM, the TGI [22] was 17.7 µM and the GI50 [23] was 3.24 µM. For the same compound, the TGI [23] was 14.6 µM, the GI50 [24] was 14.9 µM and the TGI [24] was 34.3 µM. The GI50 [25] was 3.12 µM, the TGI [25] was 15.6 µM and the GI50 [26] was 3.8 µM. The TGI [26] was 52.3 µM, the GI50 [27] was 3.83 µM and the TGI [27] was 22.1 µM. The GI50 [28] was 2.33 µM, the TGI [28] was 13.2 µM and the GI50 [29] was 4.2 µM. For the same compound, the TGI [29] was 21 µM, the GI50 [30] was 5.87 µM and the TGI [30] was 21.4 µM. The GI50 [31] was 1.98 µM, the TGI [31] was 10.3 µM and the GI50 [32] was 4.23 µM. It also gave a TGI [32] of 19.7 µM, a GI50 [33] of 2.52 µM and a TGI [33] of 22.4 µM. It also gave a GI50 [34] of 2.36 µM, a TGI [34] of 12.1 µM and a GI50 [35] of 4.98 µM. The TGI [35] was 17.7 µM, the GI50 [36] was 10.9 µM and the TGI [36] was 23.8 µM. For the same compound, the GI50 [37] was 3.86 µM, the TGI [37] was 20.3 µM and the GI50 [38] was 4.12 µM. It also gave a TGI [38] of 20.2 µM, a GI50 [39] of 2.71 µM and a TGI [39] of 14.1 µM. It also gave a GI50 [40] of 3.37 µM, a TGI [40] of 16.8 µM and a GI50 [41] of 4.85 µM. For the same compound, the TGI [41] was 18.5 µM, the GI50 [42] was 4.58 µM and the TGI [42] was 17.4 µM. The GI50 [43] was 2.16 µM, the TGI [43] was 12 µM and the GI50 [44] was 4.47 µM. It also gave a TGI [44] of 19.3 µM, a GI50 [45] of 4.33 µM and a TGI [45] of 19 µM. For the same compound, the GI50 [46] was 2.68 µM, the TGI [46] was 20.9 µM and the GI50 [47] was 1.75 µM. The TGI [47] was 13.2 µM, the GI50 [48] was 3.98 µM and the TGI [48] was 16.1 µM. For the same compound, the GI50 [49] was 10.1 µM, the TGI [49] was 23.7 µM and the GI50 [50] was 3.66 µM. The TGI [50] was 15 µM, the GI50 [51] was 2.19 µM and the TGI [51] was 16.7 µM. For the same compound, the GI50 [52] was 2.27 µM, the TGI [52] was 20.2 µM and the GI50 [53] was 6.36 µM. The TGI [53] was 25.4 µM, the GI50 [54] was 1.53 µM and the TGI [54] was 3.55 µM.
